# Laboratory results published in patent publication US20160158200A1, “Combinations of Hepatitis C Virus Inhibitors” (priority 2013, published 2016).
# System: HCV genotype-1a variant with glutamine 30 changed to glutamate in the NS5A protein
# Type: cell-based
# Conditions: test compound titrated with BMS-790052 fixed at 200 nM; genotype 1a Q30E replicon
# Summary of the method: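 Synergy was assessed by combining several fixed amounts of an NS5A-targeting compound with a titration of the second compound of interest.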
row,SMILES,Fold-Synergistic 1a (Q30E) [fold]
1,CC(C)[C@H](NC(=O)OC1CCCC1)c1ncc(-c2ccc(-c3ccc(-c4cnc([C@@H](NC(=O)OC5CCCC5)C(C)C)[nH]4)cc3)cc2)[nH]1 [Compound S-213],>100
2,CC(C)[C@H](NC(=O)N1CCC(F)(F)CC1)c1nc(-c2ccc(-c3ccc(-c4c[nH]c([C@@H](NC(=O)N5CCC(F)(F)CC5)C(C)C)n4)cc3)cc2)c[nH]1 [Compound P-130],>100
3,CC(C)[C@H](NC(=O)C1(F)CCCCC1)c1ncc(-c2ccc(-c3ccc(-c4cnc([C@@H](NC(=O)C5(F)CCCCC5)C(C)C)[nH]4)cc3)cc2)[nH]1 [Compound Y-30],>100
4,"CC(C)(C(=O)N[C@H](c1nc(-c2ccc(-c3ccc(-c4cnc([C@@H](NC(=O)C(C)(C)C5CCCO5)C(C)(C)C)[nH]4)cc3)cc2)c[nH]1)C(C)(C)C)C1CCCO1 (single isomer, unassigned) [Compound B-169]",>100
5,C[C@@H]1CCN(C(=O)C(=O)N(C2CC2)C2CC2)C1c1nc(-c2ccc(-c3ccc(-c4c[nH]c(C5[C@H](C)CCN5C(=O)C(=O)N(C5CC5)C5CC5)n4)cc3)cc2)c[nH]1 (stereo partly drawn) [Compound W-241],>10
6,"CC1(C)C2CCC(C(=O)N[C@H](c3nc(-c4ccc(-c5ccc(-c6c[nH]c([C@@H](NC(=O)C78CCC(C7)C(C)(C)C8O)C7(C)CC7)n6)cc5)cc4)c[nH]3)C3(C)CC3)(C2)C1O (single isomer, unassigned) [Compound Y-119]",>100
7,CC(C)(C)[C@H](NC(=O)C12CCC(O)(CC1)CC2)c1nc(-c2ccc(-c3ccc(-c4c[nH]c([C@@H](NC(=O)C56CCC(O)(CC5)CC6)C(C)(C)C)n4)cc3)cc2)c[nH]1 [Compound W-128],>100
8,CC(C)[C@H](NC(=O)C1CCC(F)(F)CC1)c1ncc(-c2ccc(-c3ccc(-c4cnc([C@@H](NC(=O)C5CCC(F)(F)CC5)C(C)(C)C)[nH]4)cc3)cc2)[nH]1 [Compound Y-42],>100
9,"CC1(C(=O)N[C@H](c2nc(-c3ccc(-c4ccc(-c5c[nH]c([C@@H](NC(=O)C6(C)CCCCC6O)C(C)(C)C)n5)cc4)cc3)c[nH]2)C(C)(C)C)CCCCC1O (single isomer, unassigned) [Compound Y-94]",>100
10,COC(C)(C)C(=O)N[C@H](c1nc(-c2ccc(-c3ccc(-c4c[nH]c([C@@H](NC(=O)C(C)(C)OC)C(C)(C)C)n4)cc3)cc2)c[nH]1)C(C)(C)C [Compound P-13],>100
11,CC(C)(C)C(NC(=O)C1CC(=O)N(c2ccccc2O)C1)c1nc(-c2ccc(-c3ccc(-c4c[nH]c(C(NC(=O)C5CC(=O)N(c6ccccc6O)C5)C(C)(C)C)n4)cc3)cc2)c[nH]1 (mixture of isomers) [Compound S-265],>100
12,COC1(C(=O)NC(c2nc(-c3ccc(-c4ccc(-c5c[nH]c(C(NC(=O)C6(OC)CCOC6)C(C)(C)C)n5)cc4)cc3)c[nH]2)C(C)(C)C)CCOC1 (mixture of isomers) [Compound N-158],>100
13,CC(C)[C@H](NC(=O)C(C)(C)CO)c1ncc(-c2ccc(-c3ccc(-c4cnc([C@@H](NC(=O)C(C)(C)CO)C(C)C)[nH]4)cc3)cc2)[nH]1 [Compound P-67],>100
14,CC(C)OC(C)(C)C(=O)N[C@H](c1ncc(-c2ccc(-c3ccc(-c4cnc([C@@H](NC(=O)C(C)(C)OC(C)C)C(C)C)[nH]4)cc3)cc2)[nH]1)C(C)C [Compound Y-29],>100
15,CC(C)[C@H](NC(=O)c1sccc1F)c1ncc(-c2ccc(-c3ccc(-c4cnc([C@@H](NC(=O)c5sccc5F)C(C)C)[nH]4)cc3)cc2)[nH]1 [Compound Y-28],>100
16,COC(=O)N(C)CC1(C(=O)N[C@H](c2nc(-c3ccc(-c4ccc(-c5c[nH]c([C@@H](NC(=O)C6(CN(C)C(=O)OC)CC6)C(C)(C)C)n5)cc4)cc3)c[nH]2)C(C)(C)C)CC1 [Compound L-41],>100
17,CC(C)(C)C(NC(=O)C(C)(C)C1CCCCO1)c1nc(-c2ccc(-c3ccc(-c4c[nH]c(C(NC(=O)C(C)(C)C5CCCCO5)C(C)(C)C)n4)cc3)cc2)c[nH]1 (mixture of isomers) [Compound P-153],>100
18,CC(C)[C@H](NC(=O)CC#N)c1ncc(-c2ccc(-c3ccc(-c4cnc([C@@H](NC(=O)CC#N)C(C)C)[nH]4)cc3)cc2)[nH]1 [Compound S-29],>100
19,CC1CN(C(=O)C(=O)NC(c2nc(-c3ccc(-c4ccc(-c5c[nH]c(C(NC(=O)C(=O)N6CC(C)OC(C)C6)C(C)C)n5)cc4)cc3)c[nH]2)C(C)C)CC(C)O1 (stereo not drawn) [Compound W-54],>100
20,Cc1noc(C)c1C(=O)N[C@H](c1ncc(-c2ccc(-c3ccc(-c4cnc([C@@H](NC(=O)c5c(C)noc5C)C(C)C)[nH]4)cc3)cc2)[nH]1)C(C)C [Compound S-96],>100
21,CC(C)(C)C(=O)N[C@H](c1ncc(-c2ccc(-c3ccc(-c4cnc([C@@H](NC(=O)C(C)(C)C)C5(C)CCC5)[nH]4)cc3)cc2)[nH]1)C1(C)CCC1 [Compound Y-39],>100
22,CC(C)(C)[C@H](NC(=O)C(C)(C)C(C)(C)O)c1ncc(-c2ccc(-c3ccc(-c4cnc([C@@H](NC(=O)C(C)(C)C(C)(C)O)C(C)(C)C)[nH]4)cc3)cc2)[nH]1 [Compound B69],>100
23,CC(C)(C)[C@H](NC(=O)C1(NCC(F)(F)F)CC1)c1nc(-c2ccc(-c3ccc(-c4c[nH]c([C@@H](NC(=O)C5(NCC(F)(F)F)CC5)C(C)(C)C)n4)cc3)cc2)c[nH]1 [Compound L-96],>100
24,Cc1cc(-c2ccc(-c3c[nH]c([C@@H](NC(=O)C4(C)CCCC4)C(C)C)n3)cc2)ccc1-c1c[nH]c([C@@H](NC(=O)C2(C)CCCC2)C(C)C)n1.O=C(O)C(F)(F)F [Compound N-80],>100
25,CC(C)[C@H](NC(=O)[C@@]1(C)CCC(F)(F)CO1)c1nc(-c2ccc(-c3ccc(-c4c[nH]c([C@@H](NC(=O)[C@@]5(C)CCC(F)(F)CO5)C(C)C)n4)cn3)cc2)c[nH]1 [Compound N-134],>100
26,CC(C)(C)[C@H](NC(=O)C(C)(C)n1cnnn1)c1nc(-c2ccc(-c3ccc(-c4c[nH]c([C@@H](NC(=O)C(C)(C)n5cnnn5)C(C)(C)C)n4)cc3)cc2)c[nH]1 [Compound S-277],>100
27,CO[C@H](C(=O)N[C@H](c1ncc(-c2ccc(-c3ccc(-c4cnc([C@@H](NC(=O)[C@@H](OC)c5ccccc5)C(C)C)[nH]4)cc3)cc2)[nH]1)C(C)C)c1ccccc1 [Compound P-85],>100
28,CC(C)CC(=O)N1CCC[C@H]1c1ncc(-c2ccc(-c3ccc(-c4cnc([C@@H](NC(=O)C(C)(C)C)C(C)C)[nH]4)cc3)cc2)[nH]1 [Compound Y-14],>100
29,CC(C)(C)[C@H](NCC1CCCCC1)c1nc(-c2ccc(-c3ccc(-c4c[nH]c([C@@H](NCC5CCCCC5)C(C)(C)C)n4)cc3)cc2)c[nH]1.O=C(O)C(F)(F)F [Compound L-2],>100
30,C#CCOC(=O)N1CCC[C@H]1c1ncc(-c2ccc(-c3ccc(-c4cnc([C@@H]5CCCN5C(=O)OCC#C)[nH]4)cc3)cc2)[nH]1 [Compound S-224],>10
